Each structure is given as a SMILES string.

For test [1], the system named is H460 cells. Description: Calcusyn drug combination (Alamar blue) in H460 cells. The following applies: HDAC inhibitor combined with seliciclib. The format is cell-based.
The test system of the next test is A549 cells. The following applies: A549 (value in parentheses), combined with seliciclib. The protocol: Experiments were carried out in 96-well plates and the cell lines seeded at a density of 2000/well for A549 and 3000/well for H460. […] Each HDAC inhibitor was then tested in combination with seliciclib using three different treatment regimes: concomitant, seliciclib pre-treatment followed by HDAC inhibitor and HDAC inhibitor pretreatment followed by seliciclib.
The drug concentrations selected were chosen to span the IC50 values for the drugs tested. In the pre-treatment regimes, the first drug was added 2 h after cells were plated, and left for 24 h. Medium was aspirated and replaced with fresh medium containing the second drug, and incubated for 72 h. The two controls for each sequential treatment involved substituting one of the drug treatments with medium.
Seliciclib was tested in combination with the indicated HDAC inhibitors in H460 and A549 cell lines, using three different treatment regimes. […] Data are the average of at least three independent experiments (Table 1).

The subject of test [2] is H460 cells. The following applies: H460, 1×IC50; medium 24 h then seliciclib 24 h; FIG. 6.
Setting [3] is: HDAC inhibitor 24 h then seliciclib 72 h.
[4] abbreviates: seliciclib 24 h then HDAC inhibitor 72 h.

For `CCCC(=O)[O-].[Na+]` [Butyrate, sodium butyrate], in the test with H460 cells [1] (setting [3]), the “Combination Index at ED50, HDAC inhibitor pretreatment” value was 0.74; the “Combination Index at ED75, HDAC inhibitor pretreatment” value is listed as 0.53; the “Combination Index at ED90, HDAC inhibitor pretreatment” value is given as 0.40. In addition, in the test on H460 cells [1] (both drugs 72 h), the “Combination Index at ED50, Concomitant treatment” value was 0.82; the “Combination Index at ED75, Concomitant treatment” value was 0.59; the “Combination Index at ED90, Concomitant treatment” value is 0.44. In addition, in the test on H460 cells [1] (setting [4]), the “Combination Index at ED50, Seliciclib pretreatment” value was 0.88; the “Combination Index at ED75, Seliciclib pretreatment” value was 0.68; the “Combination Index at ED90, Seliciclib pretreatment” value is 0.57. Also, in the test on A549 cells (setting [3]), the “Combination Index at ED50, HDAC inhibitor pretreatment” value stood at 0.95; the “Combination Index at ED75, HDAC inhibitor pretreatment” value was found to be 0.71; the “Combination Index at ED90, HDAC inhibitor pretreatment” value was 0.60. Further, in the test with A549 cells (both drugs 72 h), the “Combination Index at ED50, Concomitant treatment” value is recorded as 1.21; the “Combination Index at ED75, Concomitant treatment” value is listed as 0.87; the “Combination Index at ED90, Concomitant treatment” value amounted to 0.64. Besides, in the test on A549 cells (setting [4]), the “Combination Index at ED50, Seliciclib pretreatment” value is reported as 1.08; the “Combination Index at ED75, Seliciclib pretreatment” value was determined as 0.88; the “Combination Index at ED90, Seliciclib pretreatment” value is recorded as 0.75.
For `CCCC(CCC)C(=O)[O-].[Na+]` [Sodium valproate, sodium 2-propylpentanoate], the “Combination Index at ED90, HDAC inhibitor pretreatment” value in the test on H460 cells [1] (setting [3]) is given as 0.84. For the same compound, the “Combination Index at ED90, Concomitant treatment” value with H460 cells [1] (both drugs 72 h) is 1.07. In addition, the “Combination Index at ED90, Seliciclib pretreatment” value in the test with H460 cells [1] (setting [4]) is 0.81.
`CC[C@H](CO)Nc1nc(NCc2ccccc2)c2ncn(C(C)C)c2n1` [seliciclib, 2-(1-R-hydroxymethylpropylamino)-6-benzylamino-9-isopropylpurine]: the “overall cell cycle distribution” value with H460 cells [2] is listed as “no significant impact”.

The record behind these values is patent US20090306098A1 (Cyclacel Limited, priority 2005, published 2009).
